Earlier results, collected in patent publication US20060104952A1, “Genomic barrier to viral disease” (priority 2004, published 2006).

Test system: genes
Conditions: ref 10 (CoQ10 supplementation, human skeletal muscle)

For `COC1=C(OC)C(=O)C(C/C=C(\C)CC/C=C(\C)CC/C=C(\C)CC/C=C(\C)CC/C=C(\C)CC/C=C(\C)CC/C=C(\C)CC/C=C(\C)CC/C=C(\C)CCC=C(C)C)=C(C)C1=O` [coenzyme Q10], the “number of genes whose expression is influenced” value is given as “at least 115 genes”.
